# According to patent US20170333390A1, “PHYTOCHEMICAL COMPOSITIONS INCLUDING SESAMIN FOR ANTI-INFLAMMATORY, ANTI-CYTOKINE STORM, AND OTHER USES” (CHIANG MAI UNIVERSITY, priority 2009, published 2017):
# System: cartilage tissue cultures exposed to IL-1 (ECM degradation, HA release)
# Assay: HA release from IL-1 exposed cartilage tissue cultures (ELISA)
# Assay type: cell-based
# Conditions: relative to control culture, sulfate
# Protocol: Experiments were conducted to evaluate the anti-inflammatory effects of combinations of particular phytochemical compositions provided by the present disclosure with known substances, compositions, or drugs that are associated with an anti-inflammatory effect and/or an anti-degenerative or tissue integrity preservation effect in connective tissue. In the context of the present disclosure, the term “connective tissue” encompasses connective tissue proper (e.g., dense or fibrous connective tissue), as well as specialized connective tissue such as cartilage or bone. More specifically, experiments were conducted to evaluate the anti-inflammatory, anti-degenerative, and/or structural preservation effects of a combination of particular phytochemical compositions provided by the present disclosure with glucosamine sulfate. In addition, the experiments compared the anti-inflammatory/anti-degenerative effects of the combination of particular sesamin or sesamin-based phytochemical compositions provided by the present disclosure plus glucosamine sulfate, versus the anti-inflammatory/anti-degenerative effects of glucosamine sulfate alone.
# Hyaluronic acid (HA) is an important component of the extracellular matrix (ECM), as well as a major component of synovial fluid. HA is present in articular cartilage, and contributes to cartilage resilience. It is known that IL-1 stimulates the synthesis and activity of matrix metalloproteinases and other enzymes that are associated with cartilage degradation as well as rheumatoid arthritis and osteoarthritis. A set of experimental cartilage tissue cultures were prepared using cartilage tissue samples containing HA within their ECMs. As further detailed below, the experimental cartilage tissue cultures selectively incorporated glucosamine sulfate alone; sesamin alone; or a combination of glucosamine sulfate and sesamin. Additionally, a control cartilage tissue culture remained unexposed to either of sesamin or glucosamine sulfate.
# ECM degradation was induced in the experimental and control cartilage tissue cultures by exposing the cultures to IL-1. A measure or estimate of a cartilage tissue anti-degenerative effect was defined in accordance with an amount of HA that an experimental cartilage tissue culture released into the tissue culture medium relative to a reference or baseline amount of HA that was released into the tissue culture medium by the control cartilage tissue culture. More particularly, a percentage reduction in the amount of HA released into the tissue culture medium by a given experimental cartilage tissue culture relative to the amount of HA released into the tissue culture medium by the control cartilage tissue culture, indicated below as “Percentage (%) HA Reduction”, conveys or indicates the magnitude of an anti-degenerative or structural preservation effect provided by the experimental cartilage tissue culture under consideration. A corresponding measure or estimate of percentage (%) HA retention by cartilage tissue can also be defined based upon the experimental results. The amount or level of HA present in a given tissue culture medium was detected using ELISA, in a manner that can be understood by one of ordinary skill in the art.
smiles,measurement,setting,value
"N[C@H]1C(O)O[C@H](CO)[C@@H](O)[C@@H]1O.O=S(=O)(O)O (stereo partly drawn) [Glucosamine Sulfate, glucosamine sulfate, reference compound]",Percentage (%) HA Reduction,"glucosamine sulfate 20 mM (9 mg/ml), listed as glucosamine sulfate",approximately 3%
same,Percentage (%) HA Reduction,glucosamine sulfate 20 mM (9 mg/ml),3%
same,Percentage (%) HA Reduction,"glucosamine sulfate 40 mM (18 mg/ml), listed as glucosamine sulfate",approximately 28%
same,Percentage (%) HA Reduction,glucosamine sulfate 40 mM (18 mg/ml),28%
same,Percentage (%) HA Reduction,"glucosamine sulfate 80 mM (36 mg/ml), listed as glucosamine sulfate",approximately 43%
same,Percentage (%) HA Reduction,glucosamine sulfate 80 mM (36 mg/ml),43%
